Test results as given in ChEMBL document CHEMBL1142094, “Effects of glutathione and ascorbic acid on streptomycin sensitivity of Escherichia coli” (2007).
In brackets after ≈: the same amount, converted by molar mass. Activity calls are given as the source filed them. No cut-off for these calls is given here.

Assays:
[1] = test system: Escherichia coli; test: Susceptibility of Escherichia coli K12 MG1655 in presence of 10 mM glutathione by agar dilution method relative to control; format: functional
[2] = test system: Escherichia coli; test: Increase in ROS levels in Escherichia coli K12 MG1655 assessed as ratio of ROS with antibiotic to ROS without antibiotic; format: functional
[3] = test system: Escherichia coli; test: Susceptibility of Escherichia coli K12 MG1655 by agar dilution method; format: functional
[4] = test system: Escherichia coli; test: Antibacterial activity against Escherichia coli K12 W3110 in presence of 10 mM ascorbic acid; format: functional
[5] = test system: Escherichia coli; test: Decrease in sensitivity of Escherichia coli K12 MG1655 assessed as reduction in zone of inhibition in presence of 10 mM glutathione by disk diffusion method; format: functional, organism-based
[6] = test system: Escherichia coli; test: Antibacterial activity against Escherichia coli K12 DH5alpha in presence of 10 mM ascorbic acid; format: functional
[7] = test system: Escherichia coli; test: Antibacterial activity against Escherichia coli K12 DH5alpha; format: functional
[8] = test system: Escherichia coli; test: Antibacterial activity against Escherichia coli K12 MG1655 in presence of ascorbic acid by agar dilution method relative to control; format: functional
[9] = test system: Escherichia coli; test: Antibacterial activity against Escherichia coli K12 W3110; format: functional
[10] = test system: Escherichia coli; test: Antibacterial activity against Escherichia coli K12 XL1 Blue in presence of 10 mM ascorbic acid; format: functional
[11] = test system: Escherichia coli; test: Decrease in sensitivity of Escherichia coli K12 MG1655 assessed as reduction in zone of inhibition in presence of 10 mM ascorbic acid by disk diffusion method; format: functional, organism-based
[12] = test system: Escherichia coli; test: Antibacterial activity against Escherichia coli K12 XL1 Blue; format: functional

Work on `NC[C@H]1O[C@H](O[C@H]2[C@H](O)[C@@H](O[C@H]3O[C@H](CO)[C@@H](O)[C@H](N)[C@H]3O)[C@H](N)C[C@@H]2N)[C@H](O)[C@@H](O)[C@@H]1O` [KANAMYCIN] yielded an MIC [1] of over 250 mg/L, a Ratio [2] of 0.87 and an MIC [3] of 6 mg/L (≈ 12.4 µM).

Work on `CN(C)[C@@H]1C(O)=C(C(N)=O)C(=O)[C@@]2(O)C(O)=C3C(=O)c4c(O)cccc4[C@@](C)(O)[C@H]3C[C@@H]12` [TETRACYCLINE] yielded an MIC [1] of 4 mg/L, a Ratio [2] of 0.96 and an MIC [3] of 4 mg/L (≈ 9 µM).

With `O=C(O)c1cn(C2CC2)c2cc(N3CCNCC3)c(F)cc2c1=O` [CIPROFLOXACIN] the Ratio [2] was 1.1.

For `CN[C@@H]1[C@H](O)[C@H](NC)[C@H]2O[C@@]3(O)C(=O)C[C@@H](C)O[C@H]3O[C@@H]2[C@H]1O` [SPECTINOMYCIN], the MIC [1] was over 300 mg/L and the MIC [3] was 20 mg/L (≈ 60.2 µM).

For `CN[C@@H]1[C@H](O[C@H]2[C@H](O[C@H]3[C@H](O)[C@@H](O)[C@H](N=C(N)N)[C@@H](O)[C@@H]3N=C(N)N)O[C@@H](C)[C@]2(O)C=O)O[C@@H](CO)[C@H](O)[C@H]1O` [STREPTOMYCIN], the MIC [4] was over 8 mg/L, the MIC [1] was over 250 mg/L and the Activity [5] was “Active”. For the same compound, the MIC [6] was over 8 mg/L, the MIC [7] was 4 mg/L (≈ 6.88 µM) and the MIC [8] was 20 mg/L. For the same compound, the Ratio [2] was 0.78, the MIC [9] was 4 mg/L (≈ 6.88 µM) and the MIC [10] was over 8 mg/L. The MIC [3] was 8 mg/L (≈ 13.8 µM), the Activity [11] was “Active” and the MIC [12] was 4 mg/L (≈ 6.88 µM).

For `CC1=CC(=O)c2ccccc2C1=O` [MENADIONE], the Ratio [2] was 2.02.

With `O=C(N[C@H](CO)[C@H](O)c1ccc([N+](=O)[O-])cc1)C(Cl)Cl` [CHLORAMPHENICOL] the MIC [1] was 4 mg/L and the MIC [3] was 8 mg/L (≈ 24.8 µM).

For GENTAMICIN, the MIC [1] was over 200 mg/L, the Ratio [2] was 1 and the MIC [3] was 2 mg/L.
